In US20230192686A1, “1H-PYRROLO[2,3-B]PYRIDINES AND PREPARATION AND USES THEREOF” (BioSplice Therapeutics, Inc., priority 2021, published 2023):
pEC50: −log10 of the molar value.

biological target: recombinant DYRK1A kinase (Homo sapiens, UniProt Q13627); assay: DYRK1A kinase assay (Ser/Thr 18 peptide Z-lyte FRET); format: biochemical; conditions: DYRK1A kinase activity; 15 μM ATP, 4 μM Ser/Thr peptide 18, one hour at room temperature
How it was run: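 Recombinant DYRK1A at 0.25 μg/mL was incubated 1 h at room temperature with 15 μM ATP, 4 μM Ser/Thr 18 peptide and compound, in duplicate, 11-point series from 10 μM. Phosphorylation was read by Z-lyte FRET after 1 h protease development, as the coumarin/fluorescein emission ratio converted to % phosphorylation. IC50 by non-linear regression.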

Question: `CN1CCN(c2cc(-c3cnc4[nH]cc(-c5ccc6c(c5)C5(CCCCC5)NC6=O)c4c3)ccn2)CC1` [Compound 1398, 6′-(5-(2-(4-Methylpiperazin-1-yl)pyridin-4-yl)-1H-pyrrolo[2,3-b]pyridin-3-yl)spiro[cyclohexane-1,1′-isoindolin]-3′-one] was tested. Which pEC50 did it give?
Answer: 8.40

Question: How did the pEC50 turn out when `CN1CCN(c2cc(-c3cnc4[nH]cc(-c5ccc6ncccc6c5)c4c3)ccn2)CC1` [Compound 1404, 6-(5-(2-(4-Methylpiperazin-1-yl)pyridin-4-yl)-1H-pyrrolo[2,3-b]pyridin-3-yl)quinoline] was run?
Answer: 9.00

Question: `Clc1ccc2c(-c3ccc4ncccc4c3)c[nH]c2n1` [Compound 1446, 6-(6-Chloro-1H-pyrrolo[2,3-b]pyridin-3-yl)quinoline] was tested. Which pEC50 did it give?
Answer: 7.96

Question: `Cc1ccc2c(-c3cc(F)c4nc(C)n(C(C)C)c4c3)c[nH]c2n1` [Compound 1459, 4-Fluoro-1-isopropyl-2-methyl-6-(6-methyl-1H-pyrrolo[2,3-b]pyridin-3-yl)-1H-benzo[d]imidazole] was tested. Which pEC50 did it give?
Answer: 8.40

Question: `Cc1ccc2c(-c3ccc4c(c3)C(C)(C)NC4=O)c[nH]c2n1` [Compound 1481, 3,3-Dimethyl-5-(6-methyl-1H-pyrrolo[2,3-b]pyridin-3-yl)isoindolin-1-one] was tested. Which pEC50 did it give?
Answer: 7.24

Question: How did the pEC50 turn out when `Cn1cc2cc(-c3c[nH]c4nc(C5CC5)ccc34)ccc2n1` [Compound 1495, 5-(6-Cyclopropyl-1H-pyrrolo[2,3-b]pyridin-3-yl)-2-methyl-2H-indazole] was run?
Answer: 6.98

Question: With `O=C(NCC(F)F)c1cnc2ccc(-c3c[nH]c4nc(C5CC5)ccc34)cn12` [Compound 1499, 6-(6-Cyclopropyl-1H-pyrrolo[2,3-b]pyridin-3-yl)-N-(2,2-difluoroethyl) imidazo[1,2-a]pyridine-3-carboxamide] as the compound, how does the pEC50 read?
Answer: 9.00

Question: With `c1cn2cc(-c3c[nH]c4nc(C5CC5)ccc34)cnc2n1` [Compound 1500, 6-(6-Cyclopropyl-1H-pyrrolo[2,3-b]pyridin-3-yl)imidazo[1,2-a] pyrimidine] as the compound, how does the pEC50 read?
Answer: 8.30

Question: `c1nc2ccc(-c3c[nH]c4nc(C5CC5)ccc34)cn2n1` [Compound 1505, 6-(6-Cyclopropyl-1H-pyrrolo[2,3-b]pyridin-3-yl)-[1,2,4]triazolo[1,5-a] pyridine] was tested. Which pEC50 did it give?
Answer: 7.00

Question: How did the pEC50 turn out when `Cn1nnc2ccc(-c3c[nH]c4nc(C5CC5)ccc34)cc21` [Compound 1507, 6-(6-Cyclopropyl-1H-pyrrolo[2,3-b]pyridin-3-yl)-1-methyl-1H-benzo[d][1,2,3]triazole] was run?
Answer: 7.42

Question: How did the pEC50 turn out when `CN1CCN(C(=O)c2cnn3ccc(-c4c[nH]c5nc(C6CC6)ccc45)cc23)CC1` [Compound 1517, (5-(6-Cyclopropyl-1H-pyrrolo[2,3-b]pyridin-3-yl)pyrazolo[1,5-a]pyridin-3-yl)(4-methylpiperazin-1-yl)methanone] was run?
Answer: 7.18

Question: With `COc1ncnc2ccc(-c3c[nH]c4nc(C5CC5)ccc34)cc12` [Compound 1533, 6-(6-Cyclopropyl-1H-pyrrolo[2,3-b]pyridin-3-yl)-4-methoxyquinazoline] as the compound, how does the pEC50 read?
Answer: 6.64

Question: With `CN1CCN(c2ncnc3ccc(-c4c[nH]c5nc(C6CC6)ccc45)cc23)CC1` [Compound 1534, 6-(6-Cyclopropyl-1H-pyrrolo[2,3-b]pyridin-3-yl)-4-(4-methylpiperazin-1-yl)quinazoline] as the compound, how does the pEC50 read?
Answer: 7.92

Question: How did the pEC50 turn out when `Cc1nc2c(F)cc(-c3c[nH]c4nc(C5CCC5)ccc34)cc2n1C(C)C` [Compound 1543, 6-(6-Cyclobutyl-1H-pyrrolo[2,3-b]pyridin-3-yl)-4-fluoro-1-isopropyl-2-methyl-1H-benzo[d]imidazole] was run?
Answer: 7.37

Question: How did the pEC50 turn out when `Cc1nc2cnc(-c3c[nH]c4nc(C5CCC5)ccc34)cc2n1C(C)C` [Compound 1546, 6-(6-Cyclobutyl-1H-pyrrolo[2,3-b]pyridin-3-yl)-1-isopropyl-2-methyl-1H-imidazo[4,5-c]pyridine] was run?
Answer: 5.69

Question: `c1nc2ccc(-c3c[nH]c4nc(C5CCC5)ccc34)cn2n1` [Compound 1547, 6-(6-Cyclobutyl-1H-pyrrolo[2,3-b]pyridin-3-yl)-[1,2,4]triazolo[1,5-a] pyridine] was tested. Which pEC50 did it give?
Answer: 6.92

Question: With `O=C(NCC(F)F)c1cnn2ccc(-c3c[nH]c4nc(C5CCC5)ccc34)cc12` [Compound 1554, 5-(6-Cyclobutyl-1H-pyrrolo[2,3-b]pyridin-3-yl)-N-(2,2-difluoroethyl) pyrazolo[1,5-a]pyridine-3-carboxamide] as the compound, how does the pEC50 read?
Answer: 8.10

Question: With `CN1CCC(NC(=O)c2cnn3ccc(-c4c[nH]c5nc(C6CCC6)ccc45)cc23)CC1` [Compound 1556, 5-(6-Cyclobutyl-1H-pyrrolo[2,3-b]pyridin-3-yl)-N-(1-methylpiperidin-4-yl)pyrazolo[1,5-a]pyridine-3-carboxamide] as the compound, how does the pEC50 read?
Answer: 8.30

Question: `O=C(c1cnn2ccc(-c3c[nH]c4nc(C5CCC5)ccc34)cc12)N1CCCCC1` [Compound 1558, (5-(6-Cyclobutyl-1H-pyrrolo[2,3-b]pyridin-3-yl)pyrazolo[1,5-a]pyridin-3-yl)(piperidin-1-yl)methanone] was tested. Which pEC50 did it give?
Answer: 6.54

Question: `O=C1NCCOc2cc(-c3c[nH]c4nc(C5CCC5)ccc34)ccc21` [Compound 1571, 8-(6-Cyclobutyl-1H-pyrrolo[2,3-b]pyridin-3-yl)-3,4-dihydrobenzo[f] [1,4]oxazepin-5(2H)-one] was tested. Which pEC50 did it give?
Answer: 7.30

Question: How did the pEC50 turn out when `CN1CCC(Oc2ncnc3ccc(-c4c[nH]c5nc(C6CCC6)ccc45)cc23)CC1` [Compound 1577, 6-(6-Cyclobutyl-1H-pyrrolo[2,3-b]pyridin-3-yl)-4-((1-methylpiperidin-4-yl)oxy)quinazoline] was run?
Answer: 6.67

Question: How did the pEC50 turn out when `COc1ccc2c(-c3ccc4nccn4c3)c[nH]c2n1` [Compound 1666, 6-(6-Methoxy-1H-pyrrolo[2,3-b]pyridin-3-yl)imidazo[1,2-a]pyridine] was run?
Answer: 7.74

Question: How did the pEC50 turn out when `COc1ccc2c(-c3ccc4ncnn4c3)c[nH]c2n1` [Compound 1673, 6-(6-Methoxy-1H-pyrrolo[2,3-b]pyridin-3-yl)-[1,2,4]triazolo[1,5-a] pyridine] was run?
Answer: 7.19

Question: How did the pEC50 turn out when `COc1ccc2c(-c3ccc4ncccc4c3)c[nH]c2n1` [Compound 1698, 6-(6-Methoxy-1H-pyrrolo[2,3-b]pyridin-3-yl)quinoline] was run?
Answer: 8.15

Question: How did the pEC50 turn out when `CCOc1ccc2c(-c3ccc4ncnn4c3)c[nH]c2n1` [Compound 1757, 6-(6-Ethoxy-1H-pyrrolo[2,3-b]pyridin-3-yl)-[1,2,4]triazolo[1,5-a] pyridine] was run?
Answer: 6.84

Question: How did the pEC50 turn out when `Cc1nc2c(F)cc(-c3c[nH]c4nc(CO)ccc34)cc2n1C(C)C` [Compound 1795, (3-(4-Fluoro-1-isopropyl-2-methyl-1H-benzo[d]imidazol-6-yl)-1H-pyrrolo[2,3-b]pyridin-6-yl)methanol] was run?
Answer: 8.10

Question: With `O=C(Nc1cccnc1)c1cnn2ccc(-c3c[nH]c4nc(CO)ccc34)cc12` [Compound 1809, 5-(6-(Hydroxymethyl)-1H-pyrrolo[2,3-b]pyridin-3-yl)-N-(pyridin-3-yl) pyrazolo[1,5-a]pyridine-3-carboxamide] as the compound, how does the pEC50 read?
Answer: 8.52

Question: `CN1CCC(C(=O)Nc2ccc3c(-c4ccc5nn(C)cc5c4)c[nH]c3n2)CC1` [Compound 1831, 1-Methyl-N-(3-(2-methyl-2H-indazol-5-yl)-1H-pyrrolo[2,3-b]pyridin-6-yl)piperidine-4-carboxamide] was tested. Which pEC50 did it give?
Answer: 9.00

Question: How did the pEC50 turn out when `Cc1nc2c(F)cc(-c3c[nH]c4nc(NC(=O)C5CCN(C)CC5)ccc34)cc2n1C(C)C` [Compound 1837, N-(3-(4-Fluoro-1-isopropyl-2-methyl-1H-benzo[d]imidazol-6-yl)-1H-pyrrolo[2,3-b]pyridin-6-yl)-1-methylpiperidine-4-carboxamide] was run?
Answer: 9.00

Question: How did the pEC50 turn out when `CN1CCC(C(=O)Nc2ccc3c(-c4ccn5ncc(-c6cccnc6)c5c4)c[nH]c3n2)CC1` [Compound 1847, 1-Methyl-N-(3-(3-(pyridin-3-yl)pyrazolo[1,5-a]pyridin-5-yl)-1H-pyrrolo[2,3-b]pyridin-6-yl)piperidine-4-carboxamide] was run?
Answer: 9.00

Question: `CN1CCC(C(=O)Nc2ccc3c(-c4ccnc(N5CCN(C)CC5)c4)c[nH]c3n2)CC1` [Compound 1855, 1-Methyl-N-(3-(2-(4-methylpiperazin-1-yl)pyridin-4-yl)-1H-pyrrolo [2,3-b]pyridin-6-yl)piperidine-4-carboxamide] was tested. Which pEC50 did it give?
Answer: 7.52

Question: `CN1CCC(C(=O)Nc2ccc3c(-c4ccc5c(c4)C(C)(C)CNC5=O)c[nH]c3n2)CC1` [Compound 1863, N-(3-(4,4-Dimethyl-1-oxo-1,2,3,4-tetrahydroisoquinolin-6-yl)-1H-pyrrolo[2,3-b]pyridin-6-yl)-1-methylpiperidine-4-carboxamide] was tested. Which pEC50 did it give?
Answer: 8.30

Question: `CN1CCC(C(=O)Nc2ccc3c(-c4ccc5ncccc5c4)c[nH]c3n2)CC1` [Compound 1866, 1-Methyl-N-(3-(quinolin-6-yl)-1H-pyrrolo[2,3-b]pyridin-6-yl) piperidine-4-carboxamide] was tested. Which pEC50 did it give?
Answer: 9.00

Question: How did the pEC50 turn out when `CN1CCN(c2cc(-c3c[nH]c4nc(NC(=O)c5ccncc5)ccc34)ccn2)CC1` [Compound 1897, N-(3-(2-(4-Methylpiperazin-1-yl)pyridin-4-yl)-1H-pyrrolo[2,3-b]pyridin-6-yl)isonicotinamide] was run?
Answer: 7.29

Question: How did the pEC50 turn out when `O=C(Nc1ccc2c(-c3ccc4c(c3)C3(CCNCC3)CC4=O)c[nH]c2n1)c1ccncc1` [Compound 1898, N-(3-(3-oxo-2,3-dihydrospiro[indene-1,4′-piperidin]-6-yl)-1H-pyrrolo [2,3-b]pyridin-6-yl)isonicotinamide] was run?
Answer: 7.70

Question: How did the pEC50 turn out when `CN1CCC2(CC1)CC(=O)c1ccc(-c3c[nH]c4nc(NC(=O)c5ccncc5)ccc34)cc12` [Compound 1899, N-(3-(1′-methyl-3-oxo-2,3-dihydrospiro[indene-1,4′-piperidin]-6-yl)-1H-pyrrolo[2,3-b]pyridin-6-yl)isonicotinamide] was run?
Answer: 7.85

Question: How did the pEC50 turn out when `O=C(Nc1ccc2c(-c3ccc4ncccc4c3)c[nH]c2n1)c1ccncc1` [Compound 1908, N-(3-(Quinolin-6-yl)-1H-pyrrolo[2,3-b]pyridin-6-yl)isonicotinamide] was run?
Answer: 9.00

Question: `CN1CCC(Oc2ncnc3ccc(-c4c[nH]c5nc(NC(=O)c6ccncc6)ccc45)cc23)CC1` [Compound 1913, N-(3-(4-((1-Methylpiperidin-4-yl)oxy)quinazolin-6-yl)-1H-pyrrolo [2,3-b]pyridin-6-yl)isonicotinamide] was tested. Which pEC50 did it give?
Answer: 8.30
